Assay results as given in patent publication US6344479B1, “Method of preventing retinopathy of prematurity in a neonate” (Farmacon-Il, LLC, priority 2001, dated 2002).

What was measured:
[1] = test system: prematurely born infants; assay: Clinical study: development of retinopathy of prematurity (ROP) in premature neonates given NSAID; type: in vivo, human; conditions: for Max ROP grades: data as means per treatment group; for ROP: No (number of neonates without ROP) / ROP: Yes (number of neonates with any ROP): data as numbers of neonates per treatment group, i.v. postnatal treatment, gestation no more than 31 weeks
Procedure: A clinical study was carried out at the Neonatology Unit of University Hospital, Antwerp, Belgium.
Patients and Methods: 229 prematurely born infants were included in the study. All infants were born after a gestation period of no more than 31 weeks and all infants survived for a period of at least 21 days. Prospective serial retinal observation were performed by pediatric ophthalmologist starting at a postmenstrual age of 33 weeks. Evaluation for ROP in both eyes included staging and extension of disease, zone of involvement, number of clock hours, and the presence of any additional disease.

[2] = test system: mouse; conditions: administered concurrently with the injury phase; normal growth not affected; cited from earlier work

SMILES	Max ROP grades [1]	ROP: No (number of neonates without ROP) [1]	ROP: Yes (number of neonates with any ROP) [1]	Risk of developing ROP (in words) ([1]; postnatal administration, independently of other studied neonatal risk factors)	Effect on oxygen-induced retinopathy (in words) [2]
CC(C)Cc1ccc(C(C)C(=O)O)cc1 (centres unmarked) [Ibuprofen, ibuprofen lysinate]	0.26 units	26	5	significantly reduced	
COc1ccc2c(c1)c(CC(=O)O)c(C)n2C(=O)c1ccc(Cl)cc1 [Indomethacin, indomethacin]	1 units	32	30		improved oxygen-induced retinopathy
